Experiments:
[1] = Acute toxicity (LD50) in mouse; type: in vivo; settings: in vivo, 10 days observation
Method: (§1) Acute toxicity was studied in male and female mice of Swiss stock, and in male and female albino rats of Wistar stock, by administering the active principle orally, intravenously and intramuscularly.
(§2) For each method of administration, doses in geometrical progression were administered to 10 animals for each dose over a period of observation of 10 days.
(§3) On termination of the period of observation, the LD50 and the relative reliability limits were calculated by the method of Litchfield and Wilcoxon (Pharmacol. Exp. Ther., 96-19, 1949).

[2] = Acute toxicity (LD50) in rat; type: in vivo; settings: in vivo, 10 days observation
Method: as §1, §2, §3

mice of Swiss stock = assay: Acute toxicity (LD50) in mouse; type: in vivo; settings: 10 days observation; for LD50, mouse, intram. admin.: intramuscular; for LD50, mouse, intrav. admin.: intravenous; for LD50, mouse, oral admin.: Litchfield and Wilcoxon
Method: as §1, §2, §3

[3] = system: albino rats of Wistar stock; assay: Acute toxicity (LD50) in rat; type: in vivo; settings: 10 days observation; for LD50, rat, intram. admin.: intramuscular; for LD50, rat, intrav. admin.: intravenous
Method: as §1, §2, §3

[4] = system: gastric ulcers induced by the ligature of the pylorus; assay: Gastric ulcers induced by ligature of the pylorus; type: in vivo, rat (Sprague Dawley); settings: oral, one hour after operation; compounds and ranitidine 1, 3, 10, 30 mg/kg; cimetidine 3, 10, 30, 100 mg/kg
Method: To study the effect of the new compounds according to the present invention, 50 male and female rats of Sprague Dawley stock weighing approximately 200 grams were used for each compound examined.
The animals, under diet, were subjected to legature of the pylorus.
One hour after this operation, the animals were treated orally either with doses of 1, 3, 10 and 30 mg/kg of the examined compounds, or with doses of 3, 10, 30 and 100 mg/kg of cimetidine, or with doses of 1, 3, 10 and 30 mg/kg of ranitidine.

[5] = im, intramuscular, read-out: LD50, mouse, intram. admin.
[6] = intravenous, read-out: LD50, mouse, intrav. admin.
[7] = oral, Litchfield and Wilcoxon, read-out: LD50, mouse, oral admin.
[8] = im, intramuscular, read-out: LD50, rat, intram. admin.
[9] = intravenous, read-out: LD50, rat, intrav. admin.
[10] = oral, read-out: LD50, rat, oral admin.

For `CN(C)Cc1ccc(CSCCNC(=C[N+](=O)[O-])N[C@H]2C[C@H]3CC[C@@H]2C3)o1` (relative stereo) [AU/019], the LD50 at 240 h [1, 5] was 300 mg/kg, the LD50 at 240 h [1, 6] was 100 mg/kg and the LD50 at 240 h [1, 7] was 2600 mg/kg. It also gave an LD50 at 240 h [2, 8] of 2100 mg/kg and an LD50 at 240 h [2, 9] of 120 mg/kg.

In the case of `CN(C)Cc1ccc(CSCCNC(=C[N+](=O)[O-])NCC2=CCC=CC2)o1` [AU/011, N-[2-[[5-[(dimethylamino)methyl]furfuryl]thio]ethyl]-N'-(1,4-cyclohexadienyl-2-methyl)-2-nitro-1,1-ethenediamine], the “LD50, mouse, intram. admin.” value (mice of Swiss stock) is reported as 310 mg/kg, the “LD50, mouse, intrav. admin.” value (mice of Swiss stock) is reported as 90 mg/kg and the “LD50, mouse, oral admin.” value (mice of Swiss stock) is reported as 2700 mg/kg. For the same molecule, the “LD50, rat, intram. admin.” value [3] was 2100 mg/kg, the “LD50, rat, intrav. admin.” value [3] was 110 mg/kg and the “LD50, rat, oral admin.” value ([3]; oral) was 5510.0 mg/kg.

For `CN(C)Cc1ccc(CSCCNC(=C[N+](=O)[O-])N2CCC2)o1` [AU/008, 1-N-[2-[[5-[(dimethylamino)methyl]furfuryl]thio]ethyl]amino-1-cyclopropyleneimino-2-nitroethene], the LD50 at 240 h [1, 5] was 310 mg/kg, the LD50 at 240 h [1, 6] was 100 mg/kg and the LD50 at 240 h [1, 7] was 2600 mg/kg. For the same molecule, the LD50 at 240 h [2, 8] was 2200 mg/kg and the LD50 at 240 h [2, 9] was 100 mg/kg.

`CN(C)Cc1ccc(CSCCNC(=C[N+](=O)[O-])N2CCCCCC2)o1` [AU/013, 1-N-[2-[[5-[(dimethylamino)methyl]furfuryl]thio]ethyl]-amino-1-hexamethyleneimino-2-nitroethene] gave an LD50 at 240 h [1, 5] of 300 mg/kg, an LD50 at 240 h [1, 6] of 90 mg/kg and an LD50 at 240 h [1, 7] of 2700 mg/kg. The LD50 at 240 h [2, 8] was 2100 mg/kg, the LD50 at 240 h [2, 9] was 100 mg/kg and the LD50 at 240 h [2, 10] was 5530 mg/kg.

In the case of `CN(C)Cc1ccc(CSCCNC(=C[N+](=O)[O-])NN2CCCCCC2)o1` [AU/014, N-[2-[[5-[(dimethylamino)methyl]furfuryl]thio]ethyl]-N'-(hexamethyleneimino)-2-nitro-1,1-ethenediamine], the LD50 at 240 h [1, 5] is reported as 300 mg/kg, the LD50 at 240 h [1, 6] is reported as 90 mg/kg and the LD50 at 240 h [1, 7] is reported as 2600 mg/kg. It also gave an LD50 at 240 h [2, 8] of 2200 mg/kg and an LD50 at 240 h [2, 9] of 100 mg/kg.

For `CN(C)Cc1ccc(CSCCNC(=C[N+](=O)[O-])NC2CC3C=CC2C3)o1` (stereo not drawn) [AU/020], the LD50 at 240 h [1, 5] was 300 mg/kg, the LD50 at 240 h [1, 6] was 110 mg/kg and the LD50 at 240 h [1, 7] was 2700 mg/kg. The LD50 at 240 h [2, 8] was 2100 mg/kg and the LD50 at 240 h [2, 9] was 110 mg/kg.

With `CN(C)Cc1ccc(CSCCNC(=C[N+](=O)[O-])N2CCCC2)o1` [AU/017, 1-N-[2-[[5-[(dimethylamino)methyl]furfuryl]thio]ethyl]-amino-1-pyrrolidino-2-nitroethene] the LD50 at 240 h [1, 5] was 300 mg/kg, the LD50 at 240 h [1, 6] was 100 mg/kg and the LD50 at 240 h [1, 7] was 2600 mg/kg. It also gave an LD50 at 240 h [2, 8] of 2200 mg/kg and an LD50 at 240 h [2, 9] of 100 mg/kg.

For `CNC(=C[N+](=O)[O-])NCCSCc1ccc(CN(C)C)o1` [ranitidine], the “Inhibition of incidence of gastric ulcers induced by ligature of the pylorus” value [4] was “significantly inhibit the incidence of gastric ulcers”.

For `CN(C)Cc1ccc(CSCCNC(=C[N+](=O)[O-])NC2=CCC=CC2)o1` [AU/010, N-[2-[[5-[(dimethylamino)methyl]furfuryl]thio]ethyl]-N'-(1,4-ciclohexadienyl)-2-nitro-1,1-ethenediamine], the “LD50, mouse, intram. admin.” value (mice of Swiss stock) was 310 mg/kg, the “LD50, mouse, intrav. admin.” value (mice of Swiss stock) was 95 mg/kg and the “LD50, mouse, oral admin.” value (mice of Swiss stock) was 2700 mg/kg. The “LD50, rat, intram. admin.” value [3] was 2200 mg/kg and the “LD50, rat, intrav. admin.” value [3] was 110 mg/kg.

For `CN(C)Cc1ccc(CSCCNC(=C[N+](=O)[O-])NC2CCCCCC2)o1` [AU/015, N-[2-[[5-[(dimethylamino)methyl]furfuryl]thio]ethyl]-N'-cycloheptyl-2-nitro-1,1-ethenediamine], the LD50 at 240 h [1, 5] was 300 mg/kg, the LD50 at 240 h [1, 6] was 100 mg/kg and the LD50 at 240 h [1, 7] was 2800 mg/kg. It also gave an LD50 at 240 h [2, 8] of 2200 mg/kg and an LD50 at 240 h [2, 9] of 100 mg/kg.

Work on `CN(C)Cc1ccc(CSCCNC(=C[N+](=O)[O-])N2CCCCC2)o1` yielded an LD50 at 240 h [1, 5] of 300 mg/kg, an LD50 at 240 h [1, 6] of 90 mg/kg and an LD50 at 240 h [1, 7] of 2600 mg/kg. It also gave an LD50 at 240 h [2, 8] of 2100 mg/kg and an LD50 at 240 h [2, 9] of 100 mg/kg.

Work on `CN(C)Cc1ccc(CSCCNC(=C[N+](=O)[O-])N2CCC(Cc3ccccc3)CC2)o1` [AU/005, 1-N-[2-[[5-[(dimethylamino)methyl]furfuryl]thio]ethyl]-amino-1-(4-benzyl-piperidino)-2-nitroethene] yielded an LD50 at 240 h [1, 5] of 300 mg/kg, an LD50 at 240 h [1, 6] of 95 mg/kg and an LD50 at 240 h [1, 7] of 2700 mg/kg. For the same molecule, the LD50 at 240 h [2, 8] was 2100 mg/kg, the LD50 at 240 h [2, 9] was 110 mg/kg and the LD50 at 240 h [2, 10] was 5500 mg/kg.

For `CN/C(=N/CCSCc1nc[nH]c1C)NC#N` [cimetidine], the “Inhibition of incidence of gastric ulcers induced by ligature of the pylorus” value [4] was “significantly inhibit the incidence of gastric ulcers”.

Work on `CN(C)Cc1ccc(CSCCNC(=C[N+](=O)[O-])NC2CCCCC2)o1` [AU/009, N-[2-[[5-[(dimethylamino)methyl]furfuryl]thio]ethyl]-N'-(cyclohexyl)-2-nitro-1,1-ethenediamine] yielded an LD50 at 240 h [1, 5] of 300 mg/kg, an LD50 at 240 h [1, 6] of 100 mg/kg and an LD50 at 240 h [1, 7] of 2600 mg/kg. For the same molecule, the LD50 at 240 h [2, 8] was 2200 mg/kg and the LD50 at 240 h [2, 9] was 110 mg/kg.

With `CN(C)Cc1ccc(CSCCNC(=C[N+](=O)[O-])N2CCOCC2)o1` [AU/018, 1-N-[2-[[5-[(dimethylamino)methyl]furfuryl]thio]ethyl]-amino-1-morpholino-2-nitroethene] the LD50 at 240 h [1, 5] was 350 mg/kg, the LD50 at 240 h [1, 6] was 90 mg/kg and the LD50 at 240 h [1, 7] was 2700 mg/kg. The LD50 at 240 h [2, 8] was 2200 mg/kg and the LD50 at 240 h [2, 9] was 100 mg/kg.

Molecule `CN(C)Cc1ccc(CSCCNC(=C[N+](=O)[O-])N2CCN(CCO)CC2)o1` [AU/004, 1-N-[2-[[5-[(dimethylamino)methyl]furfuryl]thio]ethyl]-amino-1-4-(2-hydroxyethyl)-1-piperazino ethene] has an LD50 at 240 h [1, 5] of 300 mg/kg, an LD50 at 240 h [1, 6] of 95 mg/kg and an LD50 at 240 h [1, 7] of 2700 mg/kg. The LD50 at 240 h [2, 8] was 2000 mg/kg and the LD50 at 240 h [2, 9] was 110 mg/kg.

With “N-[2-[[5-[(dimethylamino)methyl]furfuryl]thio]ethyl]-N'-(1,4-cyclohexadienyl-2-ethyl)-2-nitro-1,1-ethenediamine [AU/012]” the “LD50, mouse, intram. admin.” value (mice of Swiss stock) was 300 mg/kg, the “LD50, mouse, intrav. admin.” value (mice of Swiss stock) was 90 mg/kg and the “LD50, mouse, oral admin.” value (mice of Swiss stock) was 2800 mg/kg. The “LD50, rat, intram. admin.” value [3] was 2100 mg/kg and the “LD50, rat, intrav. admin.” value [3] was 110 mg/kg.

For `CN(C)Cc1ccc(CSCCNC(=C[N+](=O)[O-])N2CCN(Cc3ccccc3)CC2)o1` [AU/006, 1-N-[2-[[5-[(dimethylamino)methyl]furfuryl]thio]ethyl]amino-1-(4-benzyl-piperazino)-2-nitroethene], the LD50 at 240 h [1, 5] was 300 mg/kg, the LD50 at 240 h [1, 6] was 90 mg/kg and the LD50 at 240 h [1, 7] was 2700 mg/kg. The LD50 at 240 h [2, 8] was 2100 mg/kg and the LD50 at 240 h [2, 9] was 100 mg/kg.

`CN(C)Cc1ccc(CSCCNC(=C[N+](=O)[O-])NC2CCCC2)o1` [AU/016, N-[2-[[5-[(dimethylamino)methyl]furfuryl]thio]ethyl]-N'-cyclopentyl-2-nitro-1,1-ethenediamine] showed an LD50 at 240 h [1, 5] of 300 mg/kg, an LD50 at 240 h [1, 6] of 90 mg/kg and an LD50 at 240 h [1, 7] of 2700 mg/kg. The LD50 at 240 h [2, 8] was 2200 mg/kg and the LD50 at 240 h [2, 9] was 100 mg/kg.

In the case of `CCN1CCCC(NC(=C[N+](=O)[O-])NCCSCc2ccc(CN(C)C)o2)C1` (stereo not drawn) [AU/003], the LD50 at 240 h [1, 5] is reported as 300 mg/kg, the LD50 at 240 h [1, 6] is reported as 90 mg/kg and the LD50 at 240 h [1, 7] is reported as 2800 mg/kg. The LD50 at 240 h [2, 8] was 2200 mg/kg and the LD50 at 240 h [2, 9] was 100 mg/kg.

`CN(C)Cc1ccc(CSCCNC(=C[N+](=O)[O-])N2CC2)o1` [AU/007, 1-N-[2-[[5-[(dimethylamino)methyl]furfuryl]thio]ethyl]amino-1-ethyleneimino-2-nitroethene] showed an LD50 at 240 h [1, 5] of 310 mg/kg, an LD50 at 240 h [1, 6] of 100 mg/kg and an LD50 at 240 h [1, 7] of 2800 mg/kg. The LD50 at 240 h [2, 8] was 2100 mg/kg and the LD50 at 240 h [2, 9] was 100 mg/kg.

For `CC1CCN(C(=C[N+](=O)[O-])NCCSCc2ccc(CN(C)C)o2)CC1` [AU/002, 1-N-[2-[[5-[(dimethylamino)methyl]furfuryl]thio]ethyl]amino-1-(4-methyl-piperidino)-2-nitro-ethene], the LD50 at 240 h [1, 5] was 320 mg/kg, the LD50 at 240 h [1, 6] was 100 mg/kg and the LD50 at 240 h [1, 7] was 2700 mg/kg. It also gave an LD50 at 240 h [2, 8] of 2000 mg/kg and an LD50 at 240 h [2, 9] of 100 mg/kg.

Reference: US4613596A, “Amino methyl furans and pharmaceutical compositions” (Magis Farmaceutrici s.r.l., priority 1982, dated 1986)
